Only the 19 paired bases of each siRNA are shown; overhangs and chemistry are not given here.
Molecular target: PTEN
Assay: five studies, different assays
Conditions: siRNA
Note: test concentration or dose not given here.

Substance | target inhibition [%]
sense AAAGGUGAAGAUAUAUUCC / antisense GGAAUAUAUCUUCACCUUU | 9
sense AAGAAACACAGCAACAAUG / antisense CAUUGUUGCUGUGUUUCUU | 30
sense AAGAAUGGGCUUGAAACAU / antisense AUGUUUCAAGCCCAUUCUU | 40
sense AAGUAAGGACCAGAGACAA / antisense UUGUCUCUGGUCCUUACUU | 75
sense ACCAUCUCCAGCUAUUUAC / antisense GUAAAUAGCUGGAGAUGGU | 6
sense AGUGAAUCUGUAUUGGGGU / antisense ACCCCAAUACAGAUUCACU | 39
sense AUAAAGACAAAGCCAACCG / antisense CGGUUGGCUUUGUCUUUAU | 0
sense AUACAGGAACAAUAUUGAU / antisense AUCAAUAUUGUUCCUGUAU | 49
sense CAAAUCCAGAGGCUAGCAG / antisense CUGCUAGCCUCUGGAUUUG | 44
sense CACUGACUCUGAUCCAGAG / antisense CUCUGGAUCAGAGUCAGUG | 15
sense CAGUCAGAGGCGCUAUGUG / antisense CACAUAGCGCCUCUGACUG | 73
sense CCUGUGAGCAGCCGCGGGG / antisense CCCCGCGGCUGCUCACAGG | 25
sense CCUUUUGUGAAGAUCUUGA / antisense UCAAGAUCUUCACAAAAGG | 73
sense CUCAGAAAGGAAAUAAUUU / antisense AAAUUAUUUCCUUUCUGAG | 30
sense CUCUGGCUGCUGAGGAGAA / antisense UUCUCCUCAGCAGCCAGAG | 52
sense CUUCCUCGGCUUCUCCUGA / antisense UCAGGAGAAGCCGAGGAAG | 62
sense CUUGACCUAUAUUUAUCCA / antisense UGGAUAAAUAUAGGUCAAG | 48
sense GAGGCAGCCGUUCGGAGGA / antisense UCCUCCGAACGGCUGCCUC | 58

Substance | target inhibition [%]
sense GCACAUCCAGGGACCCGGG / antisense CCCGGGUCCCUGGAUGUGC | 32
sense GCGGCGGCGGCACCUCCCG / antisense CGGGAGGUGCCGCCGCCGC | 20
sense GCGGUCCAGAGCCAAGCGG / antisense CCGCUUGGCUCUGGACCGC | 31
sense GCUACAGUUAUUAAUCUGG / antisense CCAGAUUAAUAACUGUAGC | 37
sense GGGACGAACUGGUGUAAUG / antisense CAUUACACCAGUUCGUCCC | 75
sense GGGUAAAUACAUUCUUCAU / antisense AUGAAGAAUGUAUUUACCC | 70
sense GGUCCCGUCCGCCUCUCGC / antisense GCGAGAGGCGGACGGGACC | 0
sense GGUCUUCCGAGGCGCCCGG / antisense CCGGGCGCCUCGGAAGACC | 0
sense UAAAACACCAUGAAAAUAA / antisense UUAUUUUCAUGGUGUUUUA | 58
sense UCAAAGUAGAGUUCUUCCA / antisense UGGAAGAACUCUACUUUGA | 30
sense UCCACAGGGUUUUGACACU / antisense AGUGUCAAAACCCUGUGGA | 45
sense UCUCGGAAGCUGCAGCCAU / antisense AUGGCUGCAGCUUCCGAGA | 40
sense UCUGUCACCAACUGAAGUG / antisense CACUUCAGUUGGUGACAGA | 25
sense UGACACCGCCAAAUUUAAU / antisense AUUAAAUUUGGCGGUGUCA | 65
sense UUACCAGUUAUAGGAACAA / antisense UUGUUCCUAUAACUGGUAA | 40
sense UUCCCGUUUUAUUCCAGUU / antisense AACUGGAAUAAAACGGGAA | 38
sense UUCCGAAAGGUUUUGCUAC / antisense GUAGCAAAACCUUUCGGAA | 32
sense UUUCCAUCCUGCAGAAGAA / antisense UUCUUCUGCAGGAUGGAAA | 27

Molecular target: ICAM1
Assay: five studies, different assays
Conditions: siRNA

Substance | target inhibition [%]
sense CCAACCAAUGUGCUAUUCA / antisense UGAAUAGCACAUUGGUUGG | 7
sense CCAGACUUCCUUUGUGUUA / antisense UAACACAAAGGAAGUCUGG | 48
sense CCAGGUCCACCUGGCACUG / antisense CAGUGCCAGGUGGACCUGG | 21
sense CCAUGAAACCGAACACACA / antisense UGUGUGUUCGGUUUCAUGG | 59
sense CCAUGAGGACAUACAACUG / antisense CAGUUGUAUGUCCUCAUGG | 58
sense CCAUGGUACCUGCACACCU / antisense AGGUGUGCAGGUACCAUGG | 75
sense CCUACCAGCUCCAGACCUU / antisense AAGGUCUGGAGCUGGUAGG | 45
sense CCUCUUGGCAGCCAGUGGG / antisense CCCACUGGCUGCCAAGAGG | 18
sense CGGAUGCCAGCUUGGGCAC / antisense GUGCCCAAGCUGGCAUCCG | 24
sense CUCAGCGGUCAUGUCUGGA / antisense UCCAGACAUGACCGCUGAG | 33
sense GACGUGUGCAGUAAUACUG / antisense CAGUAUUACUGCACACGUC | 30
sense GAUUCUGACGAAGCCAGAG / antisense CUCUGGCUUCGUCAGAAUC | -10
sense GCCACACUGAACAGAGUGG / antisense CCACUCUGUUCAGUGUGGC | 21
sense GCUCAAGUGUCUAAAGGAU / antisense AUCCUUUAGACACUUGAGC | 40
sense GGAGCUUCGUGUCCUGUAU / antisense AUACAGGACACGAAGCUCC | 58
sense GGAUGCCAGCUUGGGCACU / antisense AGUGCCCAAGCUGGCAUCC | 40
sense GGGACAGGGCCUCUUCCUC / antisense GAGGAAGAGGCCCUGUCCC | 52
sense GGGCAUUGUCCUCAGUCAG / antisense CUGACUGAGGACAAUGCCC | 62
sense GGUCCUAGAGGUGGACACG / antisense CGUGUCCACCUCUAGGACC | 10
sense GGUCUCUGGCCUCACGGAG / antisense CUCCGUGAGGCCAGAGACC | 7
sense GUCAUCAUCACUGUGGUAG / antisense CUACCACAGUGAUGAUGAC | 35
sense UAGGCUCACAACACCACAC / antisense GUGUGGUGUUGUGAGCCUA | 41
sense UAUUGGGUAUGCUGAGGCC / antisense GGCCUCAGCAUACCCAAUA | 43
sense UCACAGGUUCAGAGAUUAC / antisense GUAAUCUCUGAACCUGUGA | 34
sense UCAGAGUUGCAACCUCAGC / antisense GCUGAGGUUGCAACUCUGA | 1
sense UCCAUAGACAUGUGUAGCA / antisense UGCUACACAUGUCUAUGGA | 63
sense UGAACCUAUCCCGGGACAG / antisense CUGUCCCGGGAUAGGUUCA | 20
sense UGACGGAUGCCAGCUUGGG / antisense CCCAAGCUGGCAUCCGUCA | 29
sense UGUGUGUGUGUGUAUGUGU / antisense ACACAUACACACACACACA | 7
sense UUGCACUAUUGCAGCUCCA / antisense UGGAGCUGCAAUAGUGCAA | 5

Molecular target: GAPDH
Assay: five studies, different assays
Conditions: siRNA

Substance | target inhibition [%]
sense AAGGACUCAUGACCACAGU / antisense ACUGUGGUCAUGAGUCCUU | -17.4

Molecular target: placental-type alkaline phosphatase
Assay: five studies, different assays
Conditions: siRNA

Substance | target inhibition [%]
sense ACAGACAGCCGCCAAGAAC / antisense GUUCUUGGCGGCUGUCUGU | 54.7
sense ACCUCAUCAUCUUCCUGGG / antisense CCCAGGAAGAUGAUGAGGU | 49
sense AGGAGAACCCGGACUUCUG / antisense CAGAAGUCCGGGUUCUCCU | 81
sense AGUACCCAGAUGACUACAG / antisense CUGUAGUCAUCUGGGUACU | 1.85
sense CAAACAUGUGCCAGACAGU / antisense ACUGUCUGGCACAUGUUUG | 88
sense CACUGCCGACCACUCCCAC / antisense GUGGGAGUGGUCGGCAGUG | -10
sense CCUACACGGUCCUCCUAUA / antisense UAUAGGAGGACCGUGUAGG | 62.4
sense CGGAAACGGUCCAGGCUAU / antisense AUAGCCUGGACCGUUUCCG | 80.2
sense CGGAUGUUACCGAGAGCGA / antisense UCGCUCUCGGUAACAUCCG | 32
sense CGGCGCCCGGCCGGAUGUU / antisense AACAUCCGGCCGGGCGCCG | 60
sense CUACACGGUCCUCCUAUAC / antisense GUAUAGGAGGACCGUGUAG | 21.2
sense CUUCAUAGCGCACGUCAUG / antisense CAUGACGUGCGCUAUGAAG | 16.5
sense CUUUGAGCCUGGAGACAUG / antisense CAUGUCUCCAGGCUCAAAG | 79
sense GAAACGGUCCAGGCUAUGU / antisense ACAUAGCCUGGACCGUUUC | 5.96
sense GAAUCUGGUGCAGGAAUGG / antisense CCAUUCCUGCACCAGAUUC | 56.5
sense GACUGAGACGAUCAUGUUC / antisense GAACAUGAUCGUCUCAGUC | 85
sense GAGUGCAGCACGCCUCGCC / antisense GGCGAGGCGUGCUGCACUC | -5
sense GCCAAGAACCUCAUCAUCU / antisense AGAUGAUGAGGUUCUUGGC | 90.8
sense GGGCGGGCCAGCUCACCAG / antisense CUGGUGAGCUGGCCCGCCC | 20
sense UCUGGUGCAGGAAUGGCUG / antisense CAGCCAUUCCUGCACCAGA | 30
sense UGUUCGACGACGCCAUUGA / antisense UCAAUGGCGUCGUCGAACA | 74

— the OligoGym collection
